Literature values, collected in patent US20060009430A1, “Composition for the prevention and treatment of the detrimental effects of dihydrotestosterone” (priority 2004, published 2006).

Key:
advanced prostate cancer = conditions: men with most dietary selenium versus lowest intake
cancer = conditions: in vivo
prostate cancer = conditions: 200 μg daily for 4.5 years
[1] = tested on: localized prostate cancer; conditions: 15 mg twice per day orally, 3 weeks
prostate = conditions: rats, in combination with finasteride

[Se] [selenium]
fewer cases of advanced prostate cancer (advanced prostate cancer): 65% | reduction of cancer mortality and morbidity (cancer): approximately 50% | risk of lung, prostate and colon cancer (cancer): reduced significantly | skin cancer (prostate cancer): no changes | total, colorectal and lung cancer (prostate cancer): significant benefits | reduction in the incidence of prostate cancer (secondary endpoint) (prostate cancer; 6.5 years follow-up, 974 men): 63% | number that developed prostate cancer (prostate cancer; placebo group 35): 13

CC(C)=CCC/C(C)=C/C=C/C(C)=C/C=C/C(C)=C/C=C/C=C(C)/C=C/C=C(C)/C=C/C=C(\C)CCC=C(C)C [lycopene]
metastasis ([1]; biopsy): reduced metastasis | regression and malignancy ([1]; biopsy): signs of regression and reduced malignancy | tumor size ([1]; biopsy): smaller tumors | PSA ([1]; versus no intervention): significant reduction

O=c1c(O)c(-c2ccc(O)c(O)c2)oc2cc(O)cc(O)c12 [quercetin]
prostate weight (prostate): reduce prostate weight
